These results are taken from patent US7595300B2, “7-quinolyl ketolide antibacterial agents” (priority 2005, dated 2009).

The subject of one data set is anesthetized rats. Put plainly: Cardiovascular safety, QT interval in anesthetized rats, i.v. bolus. The class given is in vivo, rat. Conditions: rat. The procedure:
Total doses of drug (0.47, 0.94, 1.88, 3.75, 7.5, and 15 mg/kg) or equivalent volumes of vehicle were administered incrementally as an i.v. bolus to groups of 6 anesthetized rats or guinea pigs at 0, 15, 30, 45, 60, and 75 minutes. Hemodynamic parameters including mean arterial pressure (MAP) and heart rate (HR), and ECG parameters (QT and PR intervals and QRS duration) were recorded. For the rat, injection of vehicle gave a 16% increase in QT interval over baseline. For the guinea pig, injection of vehicle gave a 3% increase in QT interval over baseline.

Data set [1] in a line: Skin penetration of topical formulations, Franz static diffusion cells. Conditions: first experiment, dibutyl sebacate. It counts as in vitro ADME, human. The procedure:
The penetration of compound (III) formulated in various vehicles into human skin was determined. Franz static diffusion cells (15 mm diameter orifice, o-ring joint) were mounted on 9-cell manifolds and maintained at a constant temperature by use of re-circulating water baths set at 32° C. These cells have an opening with a nominal area of 1.77 cm^2 and a receptor compartment with a volume ranging between 12 to 14 ml. Each diffusion cell was assembled by placing a disk shaped section of excised human skin (obtained from elective surgery) over the orifice of the receptor (bottom) compartment. A Teflon® O-ring was placed on top of the skin before the donor cap was added (top compartment). This diffusion area was then secured in place by a pinch clamp, ensuring an adequate seal between the donor and receptor compartments. The joint between the donor and receptor compartments of each cell was wrapped with Parafilm® (American Can Company) to prevent evaporation of the receptor phase. Each cell was then filled with the receptor phase consisting of phosphate buffered saline with 0.1% sodium azide and 4% bovine serum albumin (w/w/w) at 32° C. Any air bubbles present under the tissue were removed prior to dosing. […]
Approximately 10 mg/cm^2 of each formulation was dosed onto the tissue surfaces of five cells. […] Samples were analyzed for drug content by LC/MS-MS. […]

In another data set the test system is Haemophilus influenzae. Put plainly: MIC, NCCLS broth microdilution, respiratory pathogens. It counts as cell-based. Conditions: H. influenzae. The procedure:
(§1) Minimum inhibitory concentrations (“MICs”) were determined by the NCCLS broth microdilution procedure for susceptibility testing for bacteria that grow aerobically (National Committee for Clinical Laboratory Standards, 1997. Methods for dilution antimicrobial susceptibility tests for bacteria that grow aerobically, 4th ed. Approved standard. NCCLS Document M7-A4. National Committee for Clinical Laboratory Standards, Villanova, Pa.). Stock solutions were prepared on the day of the test and appropriate aliquots were added to cation adjusted Mueller-Hinton broth (CAMHB, DIFCO) or Haemophilus test media. Two-fold serial dilutions were prepared and added to wells in microtiter plates. Final test concentrations ranged from 8 to 0.004 ug/ml. Broth cultures of bacteria inoculated from growth on overnight plates for all test bacteria except Streptococcus pneumoniae and Haemophilus influenzae were incubated at 35° C. and then adjusted to the Kirby Bauer standard and diluted in CAMHB to achieve a final inoculum concentration of approximately 5×10^5 CFU/ml. Inocula for S. pneumoniae and H. influenzae were prepared by directly suspending colonies from an overnight plate, adjusting the turbidity and diluting as above. S. pneumoniae media was supplemented with 3% lysed horse blood. All plates were incubated in ambient air at 35° C. for 20-24 h for S. pneumoniae and Haemophilus influenzae and 16-20 h for all other bacteria.
For orientation: Dilution methods test growth across graded concentrations, often in twofold steps.

A further data set relates to S. pyogenes. Described as above. It counts as cell-based. Conditions: Streptococcus pyogenes. The procedure:
as §1

For a further data set, the system named is Streptococcus pneumoniae. The data set is described as above. It counts as cell-based. Conditions: S. pneumoniae. The procedure: as §1
The test system of a further data set is M. catarrhalis. The description is as above. It counts as cell-based. Conditions: Moraxella catarrhalis. The procedure: as §1
[2] abbreviates: genotype sensitive, read-out: MIC50.
Setting [3] is: genotype sensitive, read-out: MIC90.

In brackets after ≈: the same amount, converted by molar mass. Where two headings read alike, the source gives them in different places.

In the case of `CC1CC(N(C)C)C(O)C(O[C@@H]2[C@@H](C)C(=O)[C@](C)(F)C(=O)O[C@H](CCF)[C@@]3(C)OC(=O)N[C@@H]3[C@@H](C)C(=O)[C@H](C)C[C@@]2(C)OC/C=C/c2ccc3cccnc3c2)O1` (stereo partly shown) [Compound (III), 6-O-(1-(7-quinolyl)-3-propenyl)-11-amino-11-deoxy-3-(descladinosyl)-3-oxo-2,15-difluoroerythromycin A-11,12-cyclic carbamate], the “effect on the QT interval in the rat” value in the data set with anesthetized rats is “did not prolong the QT interval”. Further, the Highest dermal penetration in data set [1] is 5.7 % of applied dose. Further, the MIC50 with Haemophilus influenzae (resistant) is greater than 8 µg/mL; in the data set with Haemophilus influenzae (sensitive) it was 2 µg/mL (≈ 2.49 µM); against S. pyogenes (genotype ermB), 0.12 µg/mL (≈ 0.15 µM); in the data set with S. pyogenes (genotype mef, read-out: MIC50), 0.12 µg/mL (≈ 0.15 µM); with S. pyogenes (setting [2]), 0.06 µg/mL (≈ 0.0748 µM); with Streptococcus pneumoniae (20 h, genotype ermB + mef), 0.5 µg/mL. The MIC50 against Streptococcus pneumoniae (genotype ermB) worked out at 0.12 µg/mL (≈ 0.15 µM); in the data set with Streptococcus pneumoniae (genotype mef, read-out: MIC50), 0.25 µg/mL (≈ 0.312 µM); in the data set on Streptococcus pneumoniae (setting [2]) it was 0.03 µg/mL (≈ 0.0374 µM); in the data set with M. catarrhalis, 0.12 µg/mL (≈ 0.15 µM). In addition, the MIC90 is greater than 8 µg/mL against Haemophilus influenzae (resistant); 4 µg/mL (≈ 4.99 µM) in the data set with Haemophilus influenzae (sensitive); 1 µg/mL (≈ 1.25 µM) with S. pyogenes (genotype ermB); 0.12 µg/mL (≈ 0.15 µM) with S. pyogenes (genotype mef, read-out: MIC90); 0.06 µg/mL (≈ 0.0748 µM) in the data set with S. pyogenes (setting [3]); 0.12 µg/mL (≈ 0.15 µM) in the data set with Streptococcus pneumoniae (genotype ermB). Besides, the MIC90 worked out at 1 µg/mL with Streptococcus pneumoniae (genotype ermB + mef); 0.25 µg/mL (≈ 0.312 µM) in the data set on Streptococcus pneumoniae (genotype mef, read-out: MIC90); 0.03 µg/mL (≈ 0.0374 µM) with Streptococcus pneumoniae (setting [3]); 0.12 µg/mL (≈ 0.15 µM) in the data set on M. catarrhalis.
